The results in this text go back to ChEMBL document CHEMBL1201862, “PubChem BioAssay data set” (2004).

Test systems include TK-10; HCT-15; CCRF-CEM; OVCAR-8; IGROV-1; RXF 393; Malme-3M; SR; A549; OVCAR-4; ACHN; HCC 2998; UACC-257; CAKI-1; OVCAR-5; SF-268; A498; COLO 205.
What all share (assay): growth of human tumour cells (NCI), 48 h

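Following 48 hours of exposure in 96-well plates, responses at five concentrations were used to interpolate endpoints linearly. Abbreviation: GI50, concentration required for 50% inhibition of growth.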 Calls of active or inactive are those of the source. Cut-off read from the data, not from the text of the source: active = GI50 up to about 1.1 µM and inactive = higher.

On to `CC1CCCc2c(CC3CC(=O)NC(=O)C3)n[nH]c21` (centres undefined), for which the GI50 in the experiment on TK-10 was > 100 µM (inactive); with HCT-15 it was > 100 µM; in the experiment with CCRF-CEM, > 100 µM (inactive); with OVCAR-8, > 100 µM (inactive); with IGROV-1, > 100 µM (inactive); in the experiment on RXF 393, > 100 µM (inactive). The GI50 in the experiment with Malme-3M, in the experiment on SR, with A549, in the experiment with OVCAR-4, in the experiment on ACHN and in the experiment on HCC 2998 was > 100 µM (inactive) each time. The GI50 with UACC-257, in the experiment with CAKI-1, with OVCAR-5, in the experiment with SF-268, in the experiment with A498 and in the experiment on COLO 205 was > 100 µM (inactive) in each case.
With `O=C1OC(c2ccccc2)=N/C1=C/NC(CS)C(=O)O` (centres undefined), the GI50 with TK-10 was > 100 µM (inactive); in the experiment on HCT-15, > 100 µM; in the experiment with CCRF-CEM, > 100 µM (inactive); in the experiment on OVCAR-8, > 100 µM (inactive); with IGROV-1, > 100 µM (inactive); with RXF 393, > 100 µM (inactive). The GI50 in the experiment with Malme-3M, in the experiment with SR, in the experiment on A549, with OVCAR-4, in the experiment on ACHN and in the experiment on HCC 2998 was > 100 µM (inactive) each time. Further, the GI50 in the experiment with UACC-257, in the experiment on OVCAR-5, with SF-268, in the experiment on A498 and with COLO 205 was > 100 µM (inactive) in each case.
On to `O=[N+]([O-])c1ccc(/C(Cl)=C/c2ccc(/C=C(\Cl)c3ccc([N+](=O)[O-])cc3[N+](=O)[O-])cc2)c([N+](=O)[O-])c1`, for which the GI50 was > 100 µM (inactive) in the experiment with TK-10; > 100 µM in the experiment with HCT-15; > 100 µM (inactive) in the experiment on OVCAR-8; > 100 µM (inactive) in the experiment with IGROV-1; > 100 µM (inactive) with RXF 393; > 100 µM (inactive) in the experiment on Malme-3M. In addition, the GI50 with SR, with A549, with OVCAR-4, with ACHN, in the experiment on HCC 2998 and in the experiment on UACC-257 was > 100 µM (inactive) in each case. The GI50 in the experiment on CAKI-1, in the experiment on OVCAR-5, with SF-268, in the experiment on A498 and in the experiment on COLO 205 was > 100 µM (inactive) each time.
In the case of `COc1cc(Nc2nc3cc(C(F)(F)F)ccc3nc2C)cc(OC)c1OC`, the GI50 in the experiment on TK-10 is 10.7 µM (inactive); in the experiment on HCT-15 it was 3.32 µM; in the experiment on CCRF-CEM it was 5.74 µM (inactive); in the experiment with OVCAR-8, 11 µM (inactive); in the experiment with IGROV-1, 13.6 µM (inactive); with RXF 393, 5.46 µM (inactive). Also, the GI50 with Malme-3M is 13.6 µM (inactive); in the experiment with SR, 6.15 µM (inactive); in the experiment with A549, > 10 µM (inactive); with OVCAR-4, 16.3 µM (inactive); with ACHN it was 8.11 µM (inactive); in the experiment on HCC 2998, 3.61 µM (inactive). In addition, the GI50 in the experiment on UACC-257 was 6.37 µM (inactive); in the experiment with CAKI-1, 7.11 µM (inactive); in the experiment on OVCAR-5 it was 13.3 µM (inactive); in the experiment on SF-268 it was 16 µM (inactive); with A498 it was 3.81 µM (inactive); in the experiment with COLO 205, 12.1 µM (inactive).
Take `CCCCCNC(=O)CCCCCCCCCCCNC(=O)CCCCCCCCCCN1C=CC(=CC=C2C=CC(=O)C=C2)C=C1`: the GI50 with TK-10 was > 10 µM (inactive); in the experiment with HCT-15, > 100 µM; with CCRF-CEM, 15.1 µM (inactive); in the experiment on OVCAR-8 it was 55.7 µM (inactive); in the experiment on IGROV-1, 28.4 µM (inactive); with RXF 393, > 100 µM (inactive). For the same compound, the GI50 is 34.9 µM (inactive) with Malme-3M; 6.64 µM (inactive) in the experiment with SR; > 100 µM (inactive) in the experiment on A549; 65 µM (inactive) in the experiment with OVCAR-4; > 100 µM (inactive) in the experiment with ACHN; 32.7 µM (inactive) with HCC 2998. The GI50 is 16.6 µM (inactive) in the experiment on UACC-257; > 100 µM (inactive) in the experiment with CAKI-1; > 100 µM (inactive) with OVCAR-5; > 100 µM (inactive) in the experiment on SF-268; > 100 µM (inactive) in the experiment on A498; 15.3 µM (inactive) with COLO 205.
For the compound `C/C(=N\NC(N)=S)c1cc(C)c(C)cc1C`, the GI50 in the experiment on TK-10 is 89.5 µM (inactive); in the experiment with HCT-15 it was 83.8 µM; in the experiment with CCRF-CEM, 29.9 µM (inactive); in the experiment with OVCAR-8, > 100 µM (inactive); in the experiment with IGROV-1, 31 µM (inactive); in the experiment with RXF 393, 29 µM (inactive). Moreover, the GI50 in the experiment on Malme-3M is 32.6 µM (inactive); with SR, 37 µM (inactive); in the experiment with A549 it was 45.2 µM (inactive); in the experiment on OVCAR-4, 30.9 µM (inactive); with ACHN, > 100 µM (inactive); in the experiment with HCC 2998, 52.5 µM (inactive). For the same compound, the GI50 was 90.8 µM (inactive) in the experiment on UACC-257; > 100 µM (inactive) in the experiment on CAKI-1; 20.1 µM (inactive) in the experiment with OVCAR-5; 62.4 µM (inactive) in the experiment with SF-268; 81.7 µM (inactive) with A498; 27.7 µM (inactive) with COLO 205.
As for `O=C(NC1C(=O)NNC1c1ccccc1Cl)c1ccccc1` (centres undefined), the GI50 was > 100 µM (inactive) in the experiment on TK-10; > 100 µM in the experiment on HCT-15; > 100 µM (inactive) in the experiment on CCRF-CEM; > 100 µM (inactive) in the experiment with OVCAR-8; > 100 µM (inactive) in the experiment with IGROV-1; > 100 µM (inactive) in the experiment with RXF 393. Besides, the GI50 is > 100 µM (inactive) in the experiment with Malme-3M; 42.2 µM (inactive) in the experiment on SR; > 100 µM (inactive) with A549; > 100 µM (inactive) with OVCAR-4; > 100 µM (inactive) with ACHN; > 100 µM (inactive) in the experiment with HCC 2998. Further, the GI50 in the experiment on UACC-257, in the experiment on CAKI-1, with OVCAR-5, with SF-268, with A498 and in the experiment with COLO 205 was > 100 µM (inactive) each time.
For the compound `O=C1C(=O)N(C(=O)c2ccc(Cl)c(Cl)c2)c2ccc(Cl)cc21`, the GI50 is > 100 µM (inactive) in the experiment with TK-10; 38.8 µM (inactive) in the experiment on CCRF-CEM; > 100 µM (inactive) with OVCAR-8; > 100 µM (inactive) in the experiment on IGROV-1; > 100 µM (inactive) in the experiment with RXF 393; 89.7 µM (inactive) with SR. The GI50 in the experiment on A549 is > 100 µM (inactive); in the experiment on OVCAR-4, 64.6 µM (inactive); in the experiment on ACHN, > 100 µM (inactive); with OVCAR-5, > 100 µM (inactive); with SF-268, > 100 µM (inactive); with A498, 19.4 µM (inactive). For the same compound, the GI50 in the experiment on COLO 205 was > 100 µM (inactive).
As for `COC(=O)c1c(C)cc2c(c1O)C1(O)C(=O)c3cc4c(c(O)c3C(=O)C1(OC)C(O)C2)C(=O)C=C(NC1OC(C)C(OC)C(O)C1OC)C4=O` (centres undefined), the GI50 with TK-10 is 0.114 µM (active); in the experiment on HCT-15 it was 0.106 µM; in the experiment with CCRF-CEM, 0.0189 µM (active); with OVCAR-8 it was 0.0695 µM (active); in the experiment on IGROV-1, 0.0134 µM (active); with RXF 393, 0.0161 µM (active). For the same compound, the GI50 in the experiment on Malme-3M is 0.0538 µM (active); in the experiment with SR it was 0.0405 µM (active); in the experiment with A549 it was 0.0619 µM (active); in the experiment on OVCAR-4, 0.0687 µM (active); with ACHN it was 0.0681 µM (active); in the experiment with HCC 2998, 0.138 µM (active). Besides, the GI50 with UACC-257 is 0.017 µM (active); in the experiment with CAKI-1, 0.225 µM (active); in the experiment on OVCAR-5 it was 0.205 µM (active); in the experiment on SF-268, 0.142 µM (active); in the experiment on A498, 0.259 µM (active); with COLO 205, 0.0532 µM (active).
For the compound `O=C(O)Cc1ccccc1CCc1ccccc1Cl`, the GI50 with TK-10 is > 100 µM (inactive); in the experiment with HCT-15, > 100 µM; in the experiment on CCRF-CEM, > 100 µM (inactive); with OVCAR-8 it was > 100 µM (inactive); with IGROV-1, > 100 µM (inactive); with RXF 393, > 100 µM (inactive). The GI50 in the experiment on Malme-3M, in the experiment with SR, with A549, with OVCAR-4, in the experiment on HCC 2998 and in the experiment with UACC-257 was > 100 µM (inactive) in each case. For the same compound, the GI50 in the experiment on CAKI-1, in the experiment with OVCAR-5, with SF-268, in the experiment on A498 and in the experiment with COLO 205 was > 100 µM (inactive) throughout.
`C#C[C@]1(O)CC[C@H]2[C@@H]3CCc4cc(O)ccc4[C@H]3CC[C@@]21C` [ETHINYL ESTRADIOL]: the GI50 with TK-10 was 43.9 µM (inactive); in the experiment on HCT-15 it was 15.4 µM; in the experiment with CCRF-CEM, 23.1 µM (inactive); in the experiment with OVCAR-8, 30.2 µM (inactive); in the experiment on IGROV-1 it was 55.5 µM (inactive); in the experiment with RXF 393 it was 29 µM (inactive). In addition, the GI50 in the experiment with Malme-3M is 30.5 µM (inactive); with SR it was 16.7 µM (inactive); in the experiment on A549, 29.1 µM (inactive); in the experiment on ACHN, 78.7 µM (inactive); in the experiment on HCC 2998, 18.3 µM (inactive); with UACC-257, 41 µM (inactive). In addition, the GI50 with CAKI-1 is 52.6 µM (inactive); in the experiment on OVCAR-5 it was 85.3 µM (inactive); with SF-268, 44.1 µM (inactive); with A498, 20.1 µM (inactive); in the experiment with COLO 205 it was 31.3 µM (inactive).
